5 compounds from patent publication US20160311806A1, “4,4'-BIPHENYLDIYL-BIS-(1 H-IMIDAZOLYL) DERIVATIVES AS HEPATITIS HCV INHIBITORS” (BRISTOL-MYERS SQUIBB COMPANY, priority 2013, published 2016) can be followed below.

One assay deals with HCV 1a. Briefly: HCV replicon assay, genotype 1a. The format is cell-based. Particulars: Hepatitis C virus, read-out: 1a LE (EC50). On the procedure: (§1) An HCV Replicon assay was utilized in the present disclosure, and was prepared, conducted and validated as described in commonly owned PCT/US2006/022197 and in O'Boyle et. al. Antimicrob Agents Chemother. 2005 April; 49(4):1346-53. Assay methods incorporating luciferase reporters have also been used as described (Apath.com).
(§2) HCV-neo replicon cells and replicon cells containing resistance substitutions in the NS5A region were used to test the currently described family of compounds. The compounds were determined to have differing degrees of reduced inhibitory activity on cells containing mutations vs. the corresponding inhibitory potency against wild-type cells. Thus, the compounds of the present disclosure can be effective in inhibiting the function of the HCV NS5A protein and are understood to be as effective in combinations as previously described in application PCT/US2006/022197 and commonly owned WO/04014852. It should be understood that the compounds of the present disclosure can inhibit multiple genotypes of HCV.
(Replicon systems follow genome replication, usually without infectious particles.)

The test system of another assay is HCV 1b genotype. Put plainly: HCV replicon assay, genotype 1b. The format is cell-based. Particulars: Hepatitis C virus, read-out: 1b LE (EC50). On the procedure: as §1, §2

Each structure is given as a SMILES string. Where two headings read alike, the source gives them in different places.

As for `CC[C@@H]1C[C@@H]([C@H](NC(=O)OC)C(=O)N2[C@@H](C)CC[C@H]2c2ncc(-c3ccc(-c4ccc(-c5cnc([C@@H]6CC[C@H](C)N6C(=O)[C@@H](NC(=O)OC)[C@H]6C[C@@H](C)O[C@H](C7CC7)C6)[nH]5)cc4)cc3)[nH]2)CCO1` [Example 2, methyl N-[(1S)-1-[(2S,4S,6R)-2-cyclopropyl-6-methyloxan-4-yl]-2-[(2S,5S)-2-{5-[4-(4-{2-[(2S,5S)-1-[(2S)-2-[(2R,4S)-2-ethyloxan-4-yl]-2-[(methoxycarbonyl)amino]acetyl]-5-methylpyrrolidin-2-yl]-1H-imidazol-5-yl}phenyl)phenyl]-1H-imidazol-2-yl}-5-methylpyrrolidin-1-yl]-2-oxoethyl]carbamate], the values for the EC50 in the assay on HCV 1a and with HCV 1b genotype were 4.52 pM and 5.76 pM, respectively.
Turning to `CC[C@@H]1C[C@@H]([C@H](NC(=O)OC)C(=O)N2[C@@H](C)CC[C@H]2c2ncc(-c3ccc(-c4ccc(-c5cnc([C@@H]6CC[C@H](C)N6C(=O)[C@@H](NC(=O)OC)[C@H]6C[C@@H](C)O[C@H](C7CC7)C6)[nH]5)cc4)cc3)[nH]2)C[C@@H](C)O1` [Example 1, methyl N-[(1S)-1-[(2S,4S,6R)-2-cyclopropyl-6-methyloxan-4-yl]-2-[(2S,5S)-2-{5-[4-(4-{2-[(2S,5S)-1-[(2S)-2-[(2R,4S,6R)-2-ethyl-6-methyloxan-4-yl]-2-[(methoxycarbonyl)amino]acetyl]-5-methylpyrrolidin-2-yl]-1H-imidazol-5-yl}phenyl)phenyl]-1H-imidazol-2-yl}-5-methylpyrrolidin-1-yl]-2-oxoethyl]carbamate], the EC50 in the assay with HCV 1a (given as range class) and in the assay on HCV 1b genotype (given as range class) was 2 to 8 pM throughout.
On to `COC(=O)N[C@H](C(=O)N1[C@@H](C)CC[C@H]1c1ncc(-c2ccc(-c3ccc(-c4cnc([C@@H]5CC[C@H](C)N5C(=O)[C@H](NC(=O)OC)c5ccccc5)[nH]4)cc3)cc2)[nH]1)[C@H]1C[C@@H](C)O[C@H](C2CC2)C1` [Example 4, methyl N-[(1S)-1-[(2S,4S,6R)-2-cyclopropyl-6-methyloxan-4-yl]-2-[(2S,5S)-2-{5-[4-(4-{2-[(2S,5S)-1-[(2R)-2-[(methoxycarbonyl)amino]-2-phenylacetyl]-5-methylpyrrolidin-2-yl]-1H-imidazol-5-yl}phenyl)phenyl]-1H-imidazol-2-yl}-5-methylpyrrolidin-1-yl]-2-oxoethyl]carbamate], for which the EC50 in the assay with HCV 1a (given as range class) and in the assay on HCV 1b genotype (given as range class) was 2 to 8 pM throughout.
On to `COC(=O)N[C@H](C(=O)N1[C@@H](C)CC[C@H]1c1ncc(-c2ccc(-c3ccc(-c4cnc([C@@H]5CC[C@H](C)N5C(=O)[C@@H](NC(=O)OC)[C@H]5C[C@@H](C)O[C@H](C6CC6)C5)[nH]4)cc3)cc2)[nH]1)C1C[C@@H](C)O[C@H](C)C1` (stereo partly drawn) [Example 5, methyl N-[(1S)-1-[(2S,4S,6R)-2-cyclopropyl-6-methyloxan-4-yl]-2-[(2S,5S)-2-{5-[4-(4-{2-[(2S,5S)-1-[(2S)-2-[(2R,6R)-2,6-dimethyloxan-4-yl]-2-[(methoxycarbonyl)amino]acetyl]-5-methylpyrrolidin-2-yl]-1H-imidazol-5-yl}phenyl)phenyl]-1H-imidazol-2-yl}-5-methylpyrrolidin-1-yl]-2-oxoethyl]carbamate], for which the EC50 in the assay on HCV 1a (given as range class) and in the assay with HCV 1b genotype (given as range class) was 2 to 8 pM in each case.
For `COC(=O)N[C@H](C(=O)N1[C@@H](C)CC[C@H]1c1ncc(-c2ccc(-c3ccc(-c4cnc([C@@H]5CC[C@H](C)N5C(=O)[C@@H](NC(=O)OC)[C@H]5C[C@@H](C)O[C@H](C6CC6)C5)[nH]4)cc3)cc2)[nH]1)C(C)C` [Example 3, methyl N-[(1S)-1-[(2S,4S,6R)-2-cyclopropyl-6-methyloxan-4-yl]-2-[(2S,5S)-2-{5-[4-(4-{2-[(2S,5S)-1-[(2S)-2-[(methoxycarbonyl)amino]-3-methylbutanoyl]-5-methylpyrrolidin-2-yl]-1H-imidazol-5-yl}phenyl)phenyl]-1H-imidazol-2-yl}-5-methylpyrrolidin-1-yl]-2-oxoethyl]carbamate], the EC50 with HCV 1a stood at 7.18 pM; in the assay with HCV 1b genotype, 2.72 pM.

The term EC50 denotes the midpoint of the concentration-response curve.
